Values quoted from earlier work in US9724304B2, “Nanospheres for therapeutic agent delivery” (Temple University—Of The Commonwealth System of Higher …, priority 2012, dated 2017).
≈ marks a conversion by molar mass, not a printed value.

Conditions: at 25° C.

aqueous solubility: 29 µg/mL (≈ 96.5 µM)
Compound: CC1=C(/C=C/C(C)=C/C=C/C(C)=C/C(=O)O)C(C)(C)CCC1 [ATRA, All-trans retinoic acid]
